± gives the expanded uncertainty stated by the source.
Conditions: Crystal; for mass density: 298 K, 101.33 kPa, Pycnometric method; for Normal melting temperature: DTA

Structure (SMILES) | mass density [kg/m3] | Normal melting temperature [°C]
Clc1ccnc2ccccc12 [4-chloroquinoline] | 1251 ± 2 | 35 ± 0.5
Clc1ccc2ccccc2n1 [2-chloroquinoline] | 1246 ± 2 | 38.4 ± 0.5
Clc1ccc2c(Cl)ccnc2c1 [4,7-dichloroquinoline] | – | 92.4 ± 0.5
Clc1ccc2ncccc2c1 [6-chloroquinoline] | – | 46 ± 0.5

Source: the NIST ThermoML archive (doi:10.1016/j.jct.2005.03.011)
